Experimental data as given in patent publication US11166930B2, “Isotopically modified components and therapeutic uses thereof” (RETROTOPE, INC., priority 2016, dated 2021).

Tests used:
COX1 = COX1 (Homo sapiens, UniProt P23219); details: compared with other types of deuterated arachidonic acid; unmodified arachidonic acid as control
Method: The effect of a high level of isotopically modified polyunsaturated lipid (e.g. arachidonic acids having deuterium at bis-allylic sites) on the enzymatic activity of cyclooxygenase (COX) was examined in vitro. The COX1 activity was measured by oxygen consumption (Clark electrode) in vitro. […] Arachidonic acid with no deuterium modification was used as a control.

Aldh2−/− mice = Aldh2−/− mice as well as APP/PS1 and 3×Tg transgenic mice; cited from earlier work

COX1, sequence (P23219 24-599): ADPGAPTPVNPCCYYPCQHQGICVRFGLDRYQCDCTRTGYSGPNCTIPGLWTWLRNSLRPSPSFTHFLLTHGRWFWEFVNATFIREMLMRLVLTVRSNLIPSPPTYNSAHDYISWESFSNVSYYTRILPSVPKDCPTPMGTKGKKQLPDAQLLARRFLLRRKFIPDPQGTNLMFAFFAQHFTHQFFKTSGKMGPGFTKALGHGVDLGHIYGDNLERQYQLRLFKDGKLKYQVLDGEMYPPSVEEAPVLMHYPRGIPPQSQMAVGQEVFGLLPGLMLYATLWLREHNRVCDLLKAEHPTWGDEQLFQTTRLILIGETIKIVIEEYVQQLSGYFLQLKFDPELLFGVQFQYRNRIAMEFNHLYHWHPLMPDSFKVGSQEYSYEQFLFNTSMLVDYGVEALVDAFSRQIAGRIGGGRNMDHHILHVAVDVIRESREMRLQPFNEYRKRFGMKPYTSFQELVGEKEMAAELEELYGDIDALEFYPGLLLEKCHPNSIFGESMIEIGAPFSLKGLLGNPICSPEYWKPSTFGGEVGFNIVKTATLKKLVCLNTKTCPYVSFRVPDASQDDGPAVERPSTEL

Compound	reduction of COX1 activity (COX1)	memory (Aldh2−/− mice)
[2H]C([2H])(/C=C\C/C=C\C/C=C\CCCC(=O)O)/C=C\CCCCC [13,13-D2-arachidonic acid]	most effective in reducing the activity of COX1	
Cc1ncsc1CCO[N+](=O)[O-].Cl [NMZ, 4-methyl-5-(2-(nitrooxy)ethyl)thiazol-3-ium chloride]		memory can be improved
